Here are results for five compounds from ChEMBL document CHEMBL1143791, “Synthesis of isonicotinoylhydrazones from anacardic acid and their in vitro activity against Mycobacterium smegmatis” (2007).

Test [1] relates to Mycolicibacterium smegmatis. Nature of the test: Antimicrobial activity against Mycobacterium smegmatis mc2 155 after 24 hrs at 0.5 ug/ml by broth dilution method. It is filed as functional, organism-based. As to conditions: str. MC2 155. A general note: Dilution methods test growth across graded concentrations, often in twofold steps.
Test [2] relates to Mycobacterium tuberculosis. Put plainly: Antimicrobial activity against Mycobacterium tuberculosis H37Rv at 0.5 ug/ml after 6 weeks. It is filed as functional, organism-based.
For test [3], the system named is Mycobacterium tuberculosis. Nature of the test: Antimicrobial activity against Mycobacterium tuberculosis H37Rv at 10 ug/ml after 6 weeks. The format is functional, organism-based.
Test [4] deals with Mycolicibacterium smegmatis. Put plainly: Antimicrobial activity against Mycobacterium smegmatis str. MC2 155 after 24 hrs by broth dilution method. The format is functional. Particulars: str. MC2 155, 24 h.
Test [5] relates to Mycolicibacterium smegmatis. Put plainly: Antimicrobial activity against Mycobacterium smegmatis str. MC2 155 after 24 hrs at 100 ug/ml by broth dilution method. It is filed as functional, organism-based.
In test [6] the test system is Mycolicibacterium smegmatis. Nature of the test: Antimicrobial activity against Mycobacterium smegmatis str. MC2 155 after 24 hrs at 1 ug/ml by broth dilution method. It is filed as functional.

The structures appear in SMILES notation. Values after ≈ are worked out from the molar mass of the structure shown. Active and inactive are the calls of the source. The calls are words filed in the database; no cut-off is given here.

One may read the MIC as the least concentration at which growth counts as inhibited. Lower therefore signals inhibition by little substance. On to `O=C(N/N=C/CCCCCCCc1c([N+](=O)[O-])ccc(O)c1C(=O)O)c1ccncc1`, for which the result in test [1] and in test [2] was inactive. The result in test [3] was Active. In addition, inhibition of growth in test [4] (MIC) required 5 µg/mL (≈ 11.7 µM).
For `O=C(N/N=C/CCCCCCCc1cccc(O)c1C(=O)O)c1ccncc1`, the outcome in test [1] and in test [2] was inactive. Moreover, in test [3], the result was Active. In test [4], this compound had an MIC of 4 µg/mL (≈ 10.4 µM).
With `C=CC/C=C\C/C=C\CCCCCCCc1cccc(O)c1C(=O)O`, the result in test [5] was inactive.
As to `NNC(=O)c1ccncc1` [ISONIAZID], in test [6], the Activity is 36%. In test [4], this compound had an MIC of 1.5 µg/mL (≈ 10.9 µM).
Consider `CCCCCCCCCCCCCCCc1c([N+](=O)[O-])ccc(O)c1C(=O)O`, for which the outcome in test [5] was inactive.
